Non-standard residues stand in square brackets, D forms with d. Residues, ends and D or L forms follow the SMILES beside them. Arg(NO2) = N=C(NCCC[C@H](N)C(=O)O)N[N+](=O)[O-]; Cit = NC(=O)NCCC[C@H](N)C(=O)O; Orn = NCCC[C@H](N)C(=O)O; Dab = NCC[C@H](N)C(=O)O; Nva = CCC[C@H](N)C(=O)O; Abu = CC[C@H](N)C(=O)O; Dap = NC[C@H](N)C(=O)O

Assay [1] has as its target T1, Neuropeptide S receptor (Mus musculus) (UniProt Q8BZP8).
T1 sequence (whole entry): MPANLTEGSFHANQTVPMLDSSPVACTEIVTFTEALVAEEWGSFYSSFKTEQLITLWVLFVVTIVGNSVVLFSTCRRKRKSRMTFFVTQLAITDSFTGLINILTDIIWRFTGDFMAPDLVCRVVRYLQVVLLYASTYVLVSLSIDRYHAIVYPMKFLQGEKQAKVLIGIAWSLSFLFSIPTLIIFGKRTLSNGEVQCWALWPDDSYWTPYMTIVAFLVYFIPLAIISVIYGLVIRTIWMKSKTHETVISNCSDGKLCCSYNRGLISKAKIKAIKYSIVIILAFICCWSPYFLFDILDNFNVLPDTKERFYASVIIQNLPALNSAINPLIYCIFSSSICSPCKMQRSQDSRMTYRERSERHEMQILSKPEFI
Nature of the assay: Agonist activity at mouse NPSR expressed in HEK293 cells assessed as increase in intracellular calcium mobilization by FLIPR relative to baseline. It is filed as functional, cell-based. Background: A change in cytosolic calcium serves as a functional read-out for many receptors and channels.

For the next assay, the target named is T2, Neuropeptide S receptor (Mus musculus, UniProt Q8BZP8).
T2 sequence (Q8BZP8 whole entry): T1 sequence (whole entry)
The experiment in a line: Agonist activity at mouse NPSR expressed in HEK293 cells assessed as increase in intracellular calcium mobilization by FLIPR. In kind it is functional, cell-based.

With `CSCC[C@H](NC(=O)CNC(=O)[C@@H](NC(=O)CNC(=O)[C@@H](NC(=O)CNC(=O)[C@H](CC(N)=O)NC(=O)[C@H](CCN)NC(=O)[C@H](Cc1ccccc1)NC(=O)[C@@H](N)CO)C(C)C)[C@@H](C)O)C(=O)N[C@@H](CCCCN)C(=O)N[C@@H](CCCCN)C(=O)N[C@H](C(=O)N[C@@H](CO)C(=O)N[C@@H](Cc1ccccc1)C(=O)N[C@@H](CCC(N)=O)C(=O)N[C@@H](CCCNC(=N)N)C(=O)N[C@@H](C)C(=O)N[C@@H](CCCCN)C(=O)N[C@@H](CO)C(=O)O)[C@@H](C)O` (H-SF[Dab]NGVGTGMKKTSFQRAKS-OH), the Emax in assay [1] was 207%. The concentration giving a half-maximal response (EC50) on Neuropeptide S receptor was 0.204 µM.
For `CSCC[C@H](NC(=O)CNC(=O)[C@@H](NC(=O)CNC(=O)[C@@H](NC(=O)CNC(=O)[C@H](CC(N)=O)NC(=O)[C@H](CCCN/C(N)=N/[N+](=O)[O-])NC(=O)[C@H](Cc1ccccc1)NC(=O)[C@@H](N)CO)C(C)C)[C@@H](C)O)C(=O)N[C@@H](CCCCN)C(=O)N[C@@H](CCCCN)C(=O)N[C@H](C(=O)N[C@@H](CO)C(=O)N[C@@H](Cc1ccccc1)C(=O)N[C@@H](CCC(N)=O)C(=O)N[C@@H](CCCNC(=N)N)C(=O)N[C@@H](C)C(=O)N[C@@H](CCCCN)C(=O)N[C@@H](CO)C(=O)O)[C@@H](C)O` (H-SF[Arg(NO2)]NGVGTGMKKTSFQRAKS-OH), in that order: 288% and 0.0219 µM.
On to `CSCC[C@H](NC(=O)CNC(=O)[C@@H](NC(=O)CNC(=O)[C@@H](NC(=O)CNC(=O)[C@H](CC(N)=O)NC(=O)[C@H](CN)NC(=O)[C@H](Cc1ccccc1)NC(=O)[C@@H](N)CO)C(C)C)[C@@H](C)O)C(=O)N[C@@H](CCCCN)C(=O)N[C@@H](CCCCN)C(=O)N[C@H](C(=O)N[C@@H](CO)C(=O)N[C@@H](Cc1ccccc1)C(=O)N[C@@H](CCC(N)=O)C(=O)N[C@@H](CCCNC(=N)N)C(=O)N[C@@H](C)C(=O)N[C@@H](CCCCN)C(=O)N[C@@H](CO)C(=O)O)[C@@H](C)O` (H-SF[Dap]NGVGTGMKKTSFQRAKS-OH), for which the Emax in assay [1] was 196%. The EC50 on Neuropeptide S receptor was 0.24 µM.
For `CSCC[C@H](NC(=O)CNC(=O)[C@@H](NC(=O)CNC(=O)[C@@H](NC(=O)CNC(=O)[C@H](CC(N)=O)NC(=O)[C@H](CCCN)NC(=O)[C@H](Cc1ccccc1)NC(=O)[C@@H](N)CO)C(C)C)[C@@H](C)O)C(=O)N[C@@H](CCCCN)C(=O)N[C@@H](CCCCN)C(=O)N[C@H](C(=O)N[C@@H](CO)C(=O)N[C@@H](Cc1ccccc1)C(=O)N[C@@H](CCC(N)=O)C(=O)N[C@@H](CCCNC(=N)N)C(=O)N[C@@H](C)C(=O)N[C@@H](CCCCN)C(=O)N[C@@H](CO)C(=O)O)[C@@H](C)O` (H-SF[Orn]NGVGTGMKKTSFQRAKS-OH), the Emax in assay [1] worked out at 318%. Further, the 50% effective concentration (EC50) on Neuropeptide S receptor was 0.0316 µM.
Taken in the same sequence, the figures for H-SFCNGVGTGMKKTSFQRAKS-OH were 256% and 0.372 µM.
For H-SFRTGVGTGMKKTSFQRAKS-OH, in that order: 253% and 0.102 µM.
For `CCC[C@H](NC(=O)[C@H](Cc1ccccc1)NC(=O)[C@@H](N)CO)C(=O)N[C@@H](CC(N)=O)C(=O)NCC(=O)N[C@H](C(=O)NCC(=O)N[C@H](C(=O)NCC(=O)N[C@@H](CCSC)C(=O)N[C@@H](CCCCN)C(=O)N[C@@H](CCCCN)C(=O)N[C@H](C(=O)N[C@@H](CO)C(=O)N[C@@H](Cc1ccccc1)C(=O)N[C@@H](CCC(N)=O)C(=O)N[C@@H](CCCNC(=N)N)C(=O)N[C@@H](C)C(=O)N[C@@H](CCCCN)C(=O)N[C@@H](CO)C(=O)O)[C@@H](C)O)[C@@H](C)O)C(C)C` (H-SF[Nva]NGVGTGMKKTSFQRAKS-OH), in that order: 207% and 0.135 µM.
On to “H-SFRNGVGTGMKKTSFQRAKS-OH [NEUROPEPTIDE S]”, for which the Emax in assay [1] was found to be 234%. The EC50 at Neuropeptide S receptor is 0.012 µM.
Taken in the same sequence, the figures for `CC[C@H](NC(=O)[C@H](Cc1ccccc1)NC(=O)[C@@H](N)CO)C(=O)N[C@@H](CC(N)=O)C(=O)NCC(=O)N[C@H](C(=O)NCC(=O)N[C@H](C(=O)NCC(=O)N[C@@H](CCSC)C(=O)N[C@@H](CCCCN)C(=O)N[C@@H](CCCCN)C(=O)N[C@H](C(=O)N[C@@H](CO)C(=O)N[C@@H](Cc1ccccc1)C(=O)N[C@@H](CCC(N)=O)C(=O)N[C@@H](CCCNC(=N)N)C(=O)N[C@@H](C)C(=O)N[C@@H](CCCCN)C(=O)N[C@@H](CO)C(=O)O)[C@@H](C)O)[C@@H](C)O)C(C)C` (H-SF[Abu]NGVGTGMKKTSFQRAKS-OH) were 218% and 0.513 µM.
For H-SFKNGVGTGMKKTSFQRAKS-OH, in that order: 290% and 0.0182 µM.
For H-SFRQGVGTGMKKTSFQRAKS-OH, in that order: 210% and 0.562 µM.
As to H-SFTNGVGTGMKKTSFQRAKS-OH, the Emax in assay [1] stood at 272%. On Neuropeptide S receptor, the EC50 is 0.871 µM.
For H-SFGNGVGTGMKKTSFQRAKS-OH, in that order: 264% and 1.26 µM.
For the molecule H-SFQNGVGTGMKKTSFQRAKS-OH, the Emax in assay [1] was determined as 295%. For the same molecule, the half-maximal effective concentration (EC50) at Neuropeptide S receptor was 0.129 µM.
For `CSCC[C@H](NC(=O)CNC(=O)[C@@H](NC(=O)CNC(=O)[C@@H](NC(=O)CNC(=O)[C@H](CC(N)=O)NC(=O)[C@H](CCCNC(N)=O)NC(=O)[C@H](Cc1ccccc1)NC(=O)[C@@H](N)CO)C(C)C)[C@@H](C)O)C(=O)N[C@@H](CCCCN)C(=O)N[C@@H](CCCCN)C(=O)N[C@H](C(=O)N[C@@H](CO)C(=O)N[C@@H](Cc1ccccc1)C(=O)N[C@@H](CCC(N)=O)C(=O)N[C@@H](CCCNC(=N)N)C(=O)N[C@@H](C)C(=O)N[C@@H](CCCCN)C(=O)N[C@@H](CO)C(=O)O)[C@@H](C)O` (H-SF[Cit]NGVGTGMKKTSFQRAKS-OH), in that order: 285% and 0.166 µM.
Turning to H-SFHNGVGTGMKKTSFQRAKS-OH, the Emax in assay [1] was 273%. In addition, the EC50 at Neuropeptide S receptor is 1.55 µM.

As usually defined, the Emax is the greatest response seen or fitted, relative to the assay's reference. As usually defined, the EC50 is the concentration giving half of the maximal effect.

The values are drawn from ChEMBL document CHEMBL1152211, “Structure-activity study at positions 3 and 4 of human neuropeptide S” (Bioorg Med Chem, 2008).
